According to patent publication US20250235499A1, “ANTI-OVARIAN CANCER PHARMACEUTICAL COMPOSITION AND ACTION TARGET THEREOF” (Zhejiang Chinese Medical University, priority 2024, published 2025):

How the values were obtained:
[1] = test system: E-cadherin, N-cadherin, Vimentin; test: Western Blot of tumor body EMT related proteins in tumor bearing nude mice; format: in vivo, BALB/c nude mice; settings: nude mouse tumor body, compared to the Control group
Text: The expression of EMT related proteins was shown in FIG. 30: (1) represented the Control group; (2) represented the DDP group; (3) represented the CA group; (4) represented the BDMC group; and (5) represented the CA+BDMC group.

[2] = test system: SKOV3 ovarian cancer cells; test: Cell cycle by flow cytometry (PI) with MCM2 knockdown or overexpression; format: cell-based, human
Description: (§1) SKOV3 and Hey ovarian cancer cells in logarithmic growth phase were knocked down with MCM2 (Control group, sh-NC group, sh-MCM2 group) and overexpressed with MCM2 (Control group, OE-NC group, OE-MCM2 group). The original culture medium was discarded, washed with PBS buffer, and digested with 0.1% trypsin. A corresponding culture medium was added to prepare a cell suspension. Cells were counted using a hemocytometer and a cell concentration was quantified at 5×10^4 cells/mL. 1500 μL of each well was inoculated into a 6 well plate, with 3 parallel wells in each group, and incubated in a 37° C. incubator containing 5% CO2 for 24 hours. After the cultivation time was over, the six well plate was taken out and aspirated the original culture medium from the wells for later use. The PBS buffer was added to gently wash the cells three times. 500 μL of 0.1% trypsin was added to each well to wait for the cells to be blown off with a pipette, then the original culture medium from the wells was added to terminate digestion. A pipette was used to gently blow off all the cells on the wall of the six well plate. The cell suspension was aspirated, transferred to a centrifuge tube, and centrifuged at 4° C. and 1000 rpm for 5 minutes. The supernatant was discarded, and 1 mL of pre-cooled PBS buffer was added to gently resuspend the cells, and transferred to a 1.5 mL sterile centrifuge tube. The mixture was centrifuged at 4° C. and 1000 rpm for 5 minutes, the supernatant was discarded, and the bottom of the centrifuge tube was gently tapped to disperse the cells. 1 mL of pre-cooled 70% ethanol was added, blown and mixed well to form a cell suspension, and placed in a refrigerator at 4° C. for 24 hours. After fixation, a water bath kettle was opened in advance, the temperature was set to 37° C., the centrifugation was performed for 5 minutes at 4° C. and 1000 rpm, and the supernatant was discarded. 1 mL of pre-cooled PBS buffer was added and gently resuspended to wash the cells. The mixture was centrifuged at 4° C. and 1000 rpm for 5 minutes, the supernatant was discarded, and the bottom of the centrifuge tube was gently tapped to disperse the cells. 500 μL of PI staining working solution containing RNase was added to each cell sample to be tested, and placed in a 37° C. dark water bath for 30 minutes. A flow cytometer was used to detect red fluorescence at an excitation wavelength of 488 nm, while also measuring light scattering. A modfit 3.2 version was used for cell DNA cycle analysis.

Hey ovarian cancer cells [3] = test: as above; format: cell-based, human
Description: as §1

[4] = test system: SKOV3 ovarian cancer cells; test: CCK-8 detection of proliferation of an ovarian cancer cell; format: cell-based, human; settings: CA 50-800 μmol/L, BDMC 3.125-50 μmol/L, 24 and 48 hours, concentration- and time-dependent
Description: (§2) SKOV3 and Hey ovarian cancer cells in logarithmic growth phase were digested with 0.1% trypsin to prepare a cell suspension, and the cell concentration was quantified at 10^4 cells/mL. 200 μL of the cell suspension each well was inoculated into a 96 well plate, and 200 μL of PBS was added to each well of the outer circle to eliminate edge effects. The 96 well plate was placed in a 37° C. incubator containing 5% CO2 for 24 hours each. After the cells adhered to the wall, the culture medium was discarded, and the cells were washed three times with PBS buffer. New culture medium containing different concentrations of CA (0, 50, 100, 200, 400, and 800 μmol/L) and BDMC ([…]) were added, with 6 parallel wells in each group. After adding a pharmaceutical, cultivation was further conducted, the 96 well plate was taken out at 24 hours and 48 hours, the original culture medium was discarded, the cells were washed three times with PBS, 200 μL of prepared serum-free culture medium containing 10% CCK-8 was added, and incubated at 37° C. for 1 hour. A well with drug concentration of 0 μmol/L was used as a control well and a well without cells and only added with a CCK-8 solution as a blank well. An absorbance at a wavelength of 450 nm was measured using a microplate reader, and an IC50 value was calculated using GraphPad Prism 8 software. […]

Hey ovarian cancer cells [5] = test: as above; format: cell-based, human; settings: CA 50-800 μmol/L, BDMC 3.125-50 μmol/L, 24 and 48 hours, concentration- and time-dependent
Description: as §2

In the case of `COc1ccc(-c2coc3cc(O)ccc3c2=O)cc1O` [CA, calycosin], the “expression of E-cadherin protein (Western Blot)” value [1] is reported as “significantly increased”, the “expression of N-cadherin protein (Western Blot)” value [1] is reported as “significantly decreased” and the “expression of Vimentin protein (Western Blot)” value [1] is reported as “significantly decreased”. The “percentage of G0/G1 phase cells” value ([2]; SKOV3 OE-MCM2 cells (MCM2 overexpression), vs OE-MCM2 group) was “no significant change”, the “percentage of G0/G1 phase cells” value ([2]; SKOV3 OE-NC cells (empty vector), vs OE-NC group) was “significantly increased” and the “percentage of G0/G1 phase cells” value ([2]; SKOV3 sh-MCM2 cells (MCM2 knockdown), vs sh-MCM2 group) was “no significant change”. For the same compound, the “percentage of G0/G1 phase cells” value ([2]; SKOV3 sh-NC cells (empty vector), vs sh-NC group) was “significantly increased”, the “percentage of G0/G1 phase cells” value (Hey ovarian cancer cells [3]; Hey OE-MCM2 cells (MCM2 overexpression), vs OE-MCM2 group) was “no significant change” and the “percentage of G0/G1 phase cells” value (Hey ovarian cancer cells [3]; Hey OE-NC cells (empty vector), vs OE-NC group) was “significantly increased”. The “percentage of G0/G1 phase cells” value (Hey ovarian cancer cells [3]; Hey sh-MCM2 cells (MCM2 knockdown), vs sh-MCM2 group) was “no significant change”, the “percentage of G0/G1 phase cells” value (Hey ovarian cancer cells [3]; Hey sh-NC cells (empty vector), vs sh-NC group) was “significantly increased” and the effect on proliferation [4] was “proliferative inhibitory effects”. For the same compound, the effect on proliferation (Hey ovarian cancer cells [5]) was “proliferative inhibitory effects”.
